Biological target: T1, mutant BEST1 R218C (Homo sapiens, UniProt O76090, R218C)
T1 construct: expressed in transfected cells
T1 sequence (O76090 1-585 R218C): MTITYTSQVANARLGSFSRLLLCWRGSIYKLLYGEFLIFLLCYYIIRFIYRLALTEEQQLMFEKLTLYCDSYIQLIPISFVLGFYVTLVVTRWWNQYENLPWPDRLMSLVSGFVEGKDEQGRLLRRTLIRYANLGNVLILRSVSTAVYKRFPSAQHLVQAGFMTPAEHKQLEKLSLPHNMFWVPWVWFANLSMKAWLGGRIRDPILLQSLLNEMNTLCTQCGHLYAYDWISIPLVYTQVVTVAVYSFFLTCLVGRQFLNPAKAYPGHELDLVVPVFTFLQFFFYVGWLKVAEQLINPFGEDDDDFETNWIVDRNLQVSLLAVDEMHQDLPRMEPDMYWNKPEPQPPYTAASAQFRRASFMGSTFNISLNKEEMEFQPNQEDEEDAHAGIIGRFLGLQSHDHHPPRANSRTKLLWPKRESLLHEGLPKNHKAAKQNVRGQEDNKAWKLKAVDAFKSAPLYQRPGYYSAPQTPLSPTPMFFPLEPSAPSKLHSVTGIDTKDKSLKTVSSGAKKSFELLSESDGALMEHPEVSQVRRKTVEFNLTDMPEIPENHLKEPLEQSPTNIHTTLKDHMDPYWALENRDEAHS
Assay: YFP-halide transport assay (I- influx), MDCKII cells expressing mutant BEST1-R218C
Format: cell-based
Experimental: Human hiPSC-RPE or MDCKII cells were transduced via lentivirus particles which were produced by co-transfecting HEK293T cells with the yellow fluorescence protein (YFPH148Q/I152L)-pLJM1 and helper plasmids pMD2.G and psPAX2 using the Ca^2+ phospate transfection method. After six weeks of cultivation in 96-well black microtiter plates, cells were incubated with 100 mM Cl^− containing solution and basal YFP fluorescence was measured in a Tecan microplate reader. Subsequently Cl^− was replaced with equimolar I^− and decrease of YFP fluorescence intensity was monitored for another 2 min in 10 sec intervals.
To analyze BEST1-mediated anion transport in the cell lines generated in the previous examples, a well-established halide transport assay (Galietta et al., 2001) was adapted. […] Addition of I— leads to specific YFP quenching over time and changes of fluorescence intensities can be monitored on a plate reader. MDCKII cells were incubated with 100 mM Cl— containing solution and steady state YFP fluorescence signal intensities were measured after 6 minutes. Subsequently, Cl— was replaced by equimolar I— and anion permeability was monitored by decreasing YFP intensities as a result of BEST1-mediated I— influx in a time course up to 2 minutes (FIG. 2B). For several independent BEST1 wildtype cell lines a fast kinetic of decreasing fluorescence intensities to ˜30 to 40% was observed while the untransfected control cell lines remained flat (FIGS. 2C and D).
Example 8—Evaluation of BioA(C2H3O2)2 activity in MDCKII cells MDCKII cells co-expressing YFP and BEST1 wildtype or mutant p.(R218C) were seeded on black 96-well plates and cultivated for 6 days to achieve polarity, a requirement for correct basolateral localization of BEST1 in epithelial cells. Compounds were tested separately at 10 μM concentration in a 96-well format. After compound addition for 24 h, cells were subjected to an inwardly directed I— gradient to drive I— influx and produce decreasing (quenched) fluorescence signals. […]

COc1ccc(-c2coc3cc(OC(C)=O)cc(OC(C)=O)c3c2=O)cc1 [Biochanin A diacetate, 3-(4-Methoxyphenyl)-4oxo-4H-chromene-5,7-diyl diacetate]
effect on BEST1 anion transport activity (MDCKII cells, FIG. 4A, comparison of Biochanin A derivatives): greatest effect | anion transport activity (I- influx) (MDCKII mutant BEST1-R218C, various concentrations from 2 μM to 20 μM, 24 h, FIG. 4C): strongly

From patent US12478605B2, “Biochanin a derivatives for treatment of BEST1-related retinopathies” (Universität Regensburg, priority 2020, dated 2025)
